Assay results reported in PubChem BioAssay (NCI).
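Growth conditions: 96-well plates. Treatment: test compound, 48 hours, 5 concentrations. Analysis: linear interpolation between bracketing concentrations; unreached endpoints set to highest concentration. Abbreviation: GI50, concentration required for 50% inhibition of growth. TGI marks complete inhibition of growth.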

How the values were obtained:
Assay in all cases: NCI anticancer screen, dose series, 48 h
NCI-H522 lung = test system: NCI-H522 lung
K-562 leukemia = test system: K-562 leukemia
SW-620 colon = test system: SW-620 colon
SN12C renal = test system: SN12C renal
COLO 205 colon = test system: COLO 205 colon
OVCAR-3 ovarian = test system: OVCAR-3 ovarian
MCF7 breast = test system: MCF7 breast
HCT-15 colon = test system: HCT-15 colon
SF-295 CNS = test system: SF-295 CNS
NCI/ADR-RES ovarian = test system: NCI/ADR-RES ovarian
LOX IMVI melanoma = test system: LOX IMVI melanoma
SR leukemia = test system: SR leukemia
HOP-62 NSCLC = test system: HOP-62 NSCLC
EKVX NSCLC = test system: EKVX NSCLC
ACHN renal = test system: ACHN renal
BT-549 breast = test system: BT-549 breast
CCRF-CEM leukemia = test system: CCRF-CEM leukemia
786-0 renal = test system: 786-0 renal
T-47D breast = test system: T-47D breast
NCI-H23 lung = test system: NCI-H23 lung
MDA-MB-231 breast = test system: MDA-MB-231 breast
OVCAR-5 ovarian = test system: OVCAR-5 ovarian
RPMI-8226 leukemia = test system: RPMI-8226 leukemia
HCT-116 colon = test system: HCT-116 colon
HT29 colon = test system: HT29 colon
SNB-19 CNS = test system: SNB-19 CNS
KM12 colon = test system: KM12 colon
SK-MEL-28 melanoma = test system: SK-MEL-28 melanoma
UACC-62 melanoma = test system: UACC-62 melanoma
A549 NSCLC = test system: A549 NSCLC
SK-MEL-5 melanoma = test system: SK-MEL-5 melanoma
HS 578T breast = test system: HS 578T breast
HCC-2998 colon = test system: HCC-2998 colon
TK-10 renal = test system: TK-10 renal
SK-OV-3 ovarian = test system: SK-OV-3 ovarian
MDA-MB-435 = test system: MDA-MB-435
MDA-MB-468 breast = test system: MDA-MB-468 breast
OVCAR-8 ovarian = test system: OVCAR-8 ovarian
MOLT-4 leukemia = test system: MOLT-4 leukemia
NCI-H226 lung = test system: NCI-H226 lung
UACC-257 melanoma = test system: UACC-257 melanoma
MALME-3M melanoma = test system: MALME-3M melanoma
RXF 393 renal = test system: RXF 393 renal
HOP-92 NSCLC = test system: HOP-92 NSCLC
HL-60(TB) leukemia = test system: HL-60(TB) leukemia
NCI-H460 lung = test system: NCI-H460 lung
SF-268 CNS = test system: SF-268 CNS
A498 renal = test system: A498 renal
OVCAR-4 ovarian = test system: OVCAR-4 ovarian
SF-539 CNS = test system: SF-539 CNS
SK-MEL-2 melanoma = test system: SK-MEL-2 melanoma
PC-3 prostate = test system: PC-3 prostate
CAKI-1 renal = test system: CAKI-1 renal
SNB-75 CNS = test system: SNB-75 CNS
DU-145 prostate = test system: DU-145 prostate
M14 melanoma = test system: M14 melanoma
IGROV1 ovarian = test system: IGROV1 ovarian
UO-31 renal = test system: UO-31 renal
U251 CNS = test system: U251 CNS

## O=C(N/N=C/c1c[nH]c2ccccc12)Nc1ccccc1Cl
NCI-H522 lung
  GI50: 42.2 nM
  TGI: 328 nM
K-562 leukemia
  GI50: 39.1 nM
  TGI: > 33800 nM
SW-620 colon
  GI50: 117 nM
  TGI: 16000 nM
SN12C renal
  GI50: 433 nM
  TGI: 6510 nM
COLO 205 colon
  GI50: 292 nM
  TGI: 1070 nM
OVCAR-3 ovarian
  GI50: 96 nM
  TGI: 2320 nM
MCF7 breast
  GI50: 230 nM
  TGI: 14300 nM
HCT-15 colon
  GI50: 65.8 nM
  TGI: 12000 nM
SF-295 CNS
  GI50: 255 nM
  TGI: 2520 nM
NCI/ADR-RES ovarian
  GI50: 57.4 nM
  TGI: 613 nM
LOX IMVI melanoma
  GI50: 274 nM
  TGI: 10600 nM
SR leukemia
  GI50: 41.1 nM
  TGI: 12900 nM
HOP-62 NSCLC
  GI50: 427 nM
  TGI: 15600 nM
EKVX NSCLC
  GI50: 500 nM
  TGI: 13000 nM
ACHN renal
  GI50: 665 nM
  TGI: 14600 nM
BT-549 breast
  GI50: 311 nM
  TGI: 6310 nM
CCRF-CEM leukemia
  GI50: 178 nM
  TGI: 10200 nM
786-0 renal
  GI50: 493 nM
  TGI: 3740 nM
T-47D breast
  GI50: 386 nM
  TGI: 26600 nM
NCI-H23 lung
  GI50: 424 nM
  TGI: 6890 nM
MDA-MB-231 breast
  GI50: 508 nM
  TGI: 4930 nM
OVCAR-5 ovarian
  GI50: 670 nM
  TGI: 13100 nM
RPMI-8226 leukemia
  GI50: 345 nM
  TGI: 4760 nM
HCT-116 colon
  GI50: 70.9 nM
  TGI: 3820 nM
HT29 colon
  GI50: 119 nM
  TGI: 986 nM
SNB-19 CNS
  GI50: 590 nM
  TGI: 16800 nM
KM12 colon
  GI50: 172 nM
  TGI: 5190 nM
SK-MEL-28 melanoma
  GI50: 2520 nM
  TGI: 19100 nM
UACC-62 melanoma
  GI50: 148 nM
  TGI: 4700 nM
A549 NSCLC
  GI50: 577 nM
  TGI: 13000 nM
SK-MEL-5 melanoma
  GI50: 254 nM
  TGI: 1370 nM
HS 578T breast
  GI50: 285 nM
  TGI: 15000 nM
HCC-2998 colon
  GI50: 608 nM
  TGI: 3490 nM
TK-10 renal
  GI50: 2410 nM
  TGI: 20600 nM
SK-OV-3 ovarian
  GI50: 526 nM
  TGI: 20200 nM
MDA-MB-435
  GI50: 27 nM
  TGI: 89.1 nM
MDA-MB-468 breast
  GI50: 217 nM
  TGI: 584 nM
OVCAR-8 ovarian
  GI50: 401 nM
  TGI: 5760 nM
MOLT-4 leukemia
  GI50: 264 nM
  TGI: 12600 nM
NCI-H226 lung
  GI50: 1690 nM
  TGI: 19600 nM
UACC-257 melanoma
  GI50: 598 nM
  TGI: 22500 nM
MALME-3M melanoma
  GI50: 239 nM
  TGI: 16000 nM
RXF 393 renal
  GI50: 292 nM
  TGI: 2100 nM
HOP-92 NSCLC
  GI50: 869 nM
  TGI: 8330 nM
HL-60(TB) leukemia
  GI50: 102 nM
  TGI: 2630 nM
NCI-H460 lung
  GI50: 336 nM
  TGI: 6200 nM
SF-268 CNS
  GI50: 844 nM
  TGI: 15000 nM
A498 renal
  GI50: 5230 nM
  TGI: 18500 nM
OVCAR-4 ovarian
  GI50: 2780 nM
  TGI: 29700 nM
SF-539 CNS
  GI50: 205 nM
  TGI: 684 nM
SK-MEL-2 melanoma
  GI50: 222 nM
  TGI: 11300 nM
PC-3 prostate
  GI50: 428 nM
  TGI: 15400 nM
CAKI-1 renal
  GI50: 257 nM
  TGI: 13800 nM
SNB-75 CNS
  GI50: 232 nM
  TGI: 2640 nM
DU-145 prostate
  GI50: 432 nM
  TGI: 11400 nM
M14 melanoma
  GI50: 111 nM
  TGI: 11900 nM
IGROV1 ovarian
  GI50: 358 nM
  TGI: 12200 nM
UO-31 renal
  GI50: 471 nM
  TGI: 14900 nM
U251 CNS
  GI50: 288 nM
  TGI: 11100 nM
